The target of one data set is T1, HIV-1 integrase (Human immunodeficiency virus type 1 group M subtype B, UniProt P04585).
T1 construct: To determine the susceptibility of the HIV-1 integrase enzyme towards different compounds
The experiment in a line: Overall integrase assay (ELISA). The format is biochemical. The following applies: concentration required to inhibit the in vitro overall integrase activity by 50%; read-out: IN enzymatic activity (IC50) Overall. From the text:
(§1) Overall integrase assay using an enzyme-linked immunosorbent assay (ELISA): To determine the susceptibility of the HIV-1 integrase enzyme towards different compounds we used enzyme-linked immunosorbent assays. These assays use an oligonucleotide substrate of which one oligonucleotide (5’-[…]-3’) is labeled with biotin at the 3’ end and the other oligonucleotide is labeled with digoxigenin at the 5’ end. For the overall integration assay the second 5’-digoxigenin labeled oligonucleotide is (5’-[…] […]-3’). For the Strand Transfer assay the second oligonucleotide lacks GT at the 3’ end. The integrase enzyme was diluted in 750 mM NaCl, 10 mM Tris pH 7.6, 10% glycerol, and 1 mM β-mercaptoethanol. To perform the reaction, diluted integrase (4 µL, corresponding to a concentration of 1.6 µM) and annealed oligonucleotides (4 µL, 7 nM) were added in a final reaction volume of 40 µL containing 10 mM MgCl2, 5 mM DTT, 20 mM HEPES pH 7.5, 5% PEG, and 15% DMSO. The reaction was carried out for 1 h at 37 °C. Reaction products were denatured with 30 mM NaOH and detected by an immunosorbent assay on avidin-coated plates.

Data set [1] concerns the target T2, HIV-1 integrase (strand transfer step) (Human immunodeficiency virus type 1 group M subtype B, UniProt P04585).
T2 construct: To determine the susceptibility of the HIV-1 integrase enzyme towards different compounds
The experiment in a line: Strand transfer assay (ELISA). The data set is classed as biochemical. The following applies: concentration required to inhibit the in vitro strand transfer step by 50%; read-out: IN enzymatic activity (IC50) ST.
Description: as §1
In general terms: An ELISA detects its analyte on a solid surface through an enzyme-linked reagent.

Data set [2] deals with HIV(IIIB) strain in MT-4 cells. The data set is described as follows: MT-4/MTT assay, HIV-induced cytopathic effect. The format is cell-based, HIV-1. The following applies: for EC50: Human immunodeficiency virus 1, IIIB, MT4, 50% protection against CPE of HIV, read-out: EC50 against HIV-1 replication in cell cultures. As for the experimental part: In vitro anti-HIV and drug susceptibility assays: The inhibitory effect of antiviral drugs on the HIV-induced cytopathic effect (CPE) in human lymphocyte MT-4 cell culture was determined by the MT-4/MTT-assay. This assay is based on the reduction of the yellow 3-(4,5-dimethylthiazol-2-yl)-2,5-diphenyltetrazolium bromide (MTT) by mitochondrial dehydrogenase of metabolically active cells to a blue formazan derivative, which can be measured spectrophotometrically. The 50% cell culture infective dose (CCID50) of the HIV(IIIB) strain was determined by titration of the virus stock using MT-4 cells. For the drug-susceptibility assays, MT-4 cells were infected with 100–300 CCID50 of the virus stock in the presence of fivefold serial dilutions of the antiviral drugs. The concentration of the various compounds that achieved 50% protection against the CPE of the different HIV strains, which is defined as the EC50, was determined. In parallel, the 50% cytotoxic concentration (CC50) was determined.

For a further data set, the system named is HIV-IN. Also on record: method as in PMID 19385721, PMID 20112170. The following applies: HIV-IN inhibitor; cited from earlier work.

Broadly, the IC50 is the point on the concentration scale where inhibition reaches its midpoint. By EC50 is commonly meant the concentration giving half of the maximal effect. For orientation: melting point means the temperature of the solid-liquid transition.

On to `COc1cccc2c1c(C(=O)/C=C(\O)C(=O)O)cn2Cc1ccc(F)cc1` [CHI-1043, reference compound], for which the IC50 on HIV-1 integrase worked out at 0.08 ± 0.003 µM; in data set [1], 0.14 ± 0.11 µM.

`COc1cccc2c1c(C(=O)C=C(O)C(=O)O)cn2Cc1ccccc1C` [Compound 7a, 4-[1-(2-Methylbenzyl)-4-methoxy-1H-indol-3-yl]-2-hydroxy-4-oxobut-2-enoic acid]: the melting point lay in the range of 164 to 166 °C. Moreover, the IC50 at HIV-1 integrase turned out to be 1.74 ± 1.32 µM. Also, the EC50 in data set [2] turned out to be 1.74 µM. Also, the “selectivity index (SI)” value in data set [2] (ratio of EC50 and CC50 values) came to 43. The IC50 in data set [1] was found to be 1.07 ± 0.76 µM.

The molecule `COc1cccc2c1c(C(=O)C=C(O)C(=O)O)cn2Cc1cccc(C)c1` [Compound 7b, 4-[1-(3-Methylbenzyl)-4-methoxy-1H-indol-3-yl]-2-hydroxy-4-oxobut-2-enoic acid] registered a melting point of 150 to 152 °C. Further, the half-inhibitory concentration (IC50) at HIV-1 integrase is 0.42 ± 0.29 µM. Further, the concentration giving a half-maximal response (EC50) in data set [2] was determined as 2.14 µM. Besides, in data set [1], the half-inhibitory concentration (IC50) was 1.36 ± 0.64 µM.

The molecule `COc1cccc2c1c(C(=O)C=C(O)C(=O)O)cn2Cc1ccc(C)cc1` [Compound 7c, 4-[1-(4-Methylbenzyl)-4-methoxy-1H-indol-3-yl]-2-hydroxy-4-oxobut-2-enoic acid] gave a melting point of 141 to 143 °C. Also, the IC50 at HIV-1 integrase stood at 5.76 ± 1.82 µM. The IC50 in data set [1] was 8.84 ± 5.6 µM.

Take `COc1cccc2c1c(C(=O)C=C(O)C(=O)O)cn2Cc1cccc(C)c1C` [Compound 7d, 4-[1-(2,3-Dimethylbenzyl)-4-methoxy-1H-indol-3-yl]-2-hydroxy-4-oxobut-2-enoic acid]: the melting point lay within 160 to 162 °C. The 50% inhibitory concentration (IC50) at HIV-1 integrase was 2.61 ± 1.17 µM. Further, the concentration for a half-maximal effect (EC50) in data set [2] amounted to 1.74 µM. For the same molecule, in data set [1], the concentration for half-maximal inhibition (IC50) amounted to 6.79 ± 0.64 µM.

As to `COc1cccc2c1c(C(=O)C=C(O)C(=O)O)cn2Cc1ccc(C)cc1C` [Compound 7e, 4-[1-(2,4-Dimethylbenzyl)-4-methoxy-1H-indol-3-yl]-2-hydroxy-4-oxobut-2-enoic acid], the melting point was 143 to 145 °C. On HIV-1 integrase, the IC50 was 51.8 ± 33.8 µM. For the same molecule, in data set [1], the IC50 was 55.9 ± 43.8 µM.

As for `COc1cccc2c1c(C(=O)C=C(O)C(=O)O)cn2Cc1cc(C)ccc1C` [Compound 7f, 4-[1-(2,5-Dimethylbenzyl)-4-methoxy-1H-indol-3-yl]-2-hydroxy-4-oxobut-2-enoic acid], the melting point is 163 to 165 °C. Besides, the half-inhibitory concentration (IC50) on HIV-1 integrase came out at 3.83 ± 2.21 µM. Also, the IC50 in data set [1] was 9.47 ± 1.06 µM.

`COc1cccc2c1c(C(=O)C=C(O)C(=O)O)cn2Cc1c(C)cccc1C` [Compound 7g, 4-[1-(2,6-Dimethylbenzyl)-4-methoxy-1H-indol-3-yl]-2-hydroxy-4-oxobut-2-enoic acid] yielded a melting point of 173 to 175 °C. Besides, the IC50 on HIV-1 integrase was 7.34 ± 1.32 µM. In addition, the concentration for half-maximal inhibition (IC50) in data set [1] came out at 23.5 ± 17.8 µM.

In turn, `COc1cccc2c1c(C(=O)C=C(O)C(=O)O)cn2Cc1cc(C)cc(C)c1` [Compound 7h, 4-[1-(3,5-Dimethylbenzyl)-4-methoxy-1H-indol-3-yl]-2-hydroxy-4-oxobut-2-enoic acid] came in with a melting point of 120 to 122 °C. Further, the IC50 on HIV-1 integrase amounted to 7.69 ± 5.59 µM. In data set [1], the IC50 worked out at 5.49 ± 2.67 µM.

The molecule `COc1cccc2c1c(C(=O)C=C(O)C(=O)O)cn2Cc1cc(C)c(F)c(C)c1` [Compound 7i, 4-[1-(4-Fluoro-3,5-dimethylbenzyl)-4-methoxy-1H-indol-3-yl]-2-hydroxy-4-oxobut-2-enoic acid] returned a melting point of 153 to 155 °C. Also, the IC50 on HIV-1 integrase is 2.17 ± 1.65 µM. Besides, in data set [1], the concentration for half-maximal inhibition (IC50) is 5.24 ± 1.34 µM.

For the molecule `Cc1nnc(C(=O)NC(C)(C)c2nc(C(=O)NCc3ccc(F)cc3)c(O)c(=O)n2C)o1` [raltegravir], the IC50 in the data set with HIV-IN is 0.0068 µM.

The values above are taken from PMC6264142, “Microwave Assisted Organic Synthesis (MAOS) of Small Molecules as Potential HIV-1 Integrase Inhibitors” (Molecules, 2011).
